Key:
[1] = system: blood uric acid; assay: Multiple dose study of TS dispersion, 14 days (Example 6): blood uric acid level; format: in vivo, healthy subjects and elderly subjects
Experimental: Example 3 - Preparation of dispersions for oral administration: (a) Using the tosylate salt of 4-r2-(5-Amino-1 H-pyrazol-4-yl)-4-chlorophenoxyl-5- chloro-2-fluoro-N-(1,3-thiazol-4-yl)benzenesulfonamide: Methylcellulose vehicle (0.5% w/v) was prepared as follows. Water for irrigation (600 ml.) was heated in a beaker to between 80°C and 90°C. Methylcellulose (5 g) powder was added, with stirring, until the powder had fully dispersed. The dispersion was then transferred into an ice bath and cooled rapidly whilst adding chilled water for irrigation (400 ml.) to give a clear solution. The dispersion for oral administration was prepared by weighing the required quantity of 4-[2-(5-amino-1 H-pyrazol-4-yl)-4-chlorophenoxy]-5-chloro-2-fluoro-N- (1,3-thiazol-4-yl)benzenesulfonamide tosylate (from 10mg to 2400mg) into an appropriately sized glass amber dosing bottle and adding a volume of vehicle (0.5% (w/v) methylcellulose). The volume of vehicle added was dependant on dose: 15 ml. for doses of drug in the range 10 mg to < 30 mg; and 50 ml. for doses of drug in the range 30 mg to 2400 mg, so that the drug concentration was in the range 0.6 to 50 mg/mL. The dispersion was stored at 2 to 8°C and administered within 72 hours directly from the dosing containers. After administration the glass dosing bottle was rinsed with two approximate equal aliquots of drinking water such that the total volume administered, including dosing volume, was 240 ml_. (b) Using the SDD of 4-[2-(5-Amino-1 H-pyrazol-4-yl)-4-chlorophenoxyl-5-chloro-2- fluoro-N-(1,3-thiazol-4-yl)benzenesulfonamide: Methylcellulose vehicle 0.5% (w/v) was prepared using the procedure set out in Example 3(a) above. The dispersion for oral administration was prepared by weighing the required quantity of 4-[2-(5-amino-1 H-pyrazol-4-yl)-4-chlorophenoxy]-5-chloro-2-fluoro-N- (1,3-thiazol-4-yl)benzenesulfonamide SDD into an appropriately sized glass amber dosing bottle and adding a volume of vehicle (0.5% (w/v) Methylcellulose). The volume of vehicle added was dependent on dose: 20 ml. to 100 ml. over the dose range 10 mg to 2400 mg, so that the drug concentration was in the range 0.6 to 50 mg/mL. The dispersion was stored at 2 to 8°C and administered within 72 hours directly from the dosing containers. After administration the glass dosing bottle was rinsed with two approximate equal aliquots of drinking water such that the total volume administered, including dosing volume, was 240 ml_. […] Uric acid measurements were performed using a commercial colorimetric assay kit (Beckman Coulter). […]

[2] = system: uric acid in urine; assay: Multiple dose study of TS dispersion, 14 days (Example 6): uric acid excretion in urine; format: in vivo, healthy subjects and elderly subjects; conditions: 24 hour urine, Days 1, 6, 14, 16; returns to baseline by Day 16
Experimental: Example 6 - Multiple dose study: a double-blind, randomized, placebo-controlled, study in healthy subjects and elderly subjects: Multiple oral doses of 4-[2-(5-amino-1 H-pyrazol-4-yl)-4-chlorophenoxy]-5-chloro-2-fluoro-N-(1,3-thiazol-4-yl)benzenesulfonamide TS dispersion for oral administration, and placebo, were investigated for 14 days, as follows: • healthy subjects, 300 mg twice daily (BID,) • healthy subjects, 450 mg BI D, and • elderly subjects, 300 mg BID.
Subjects were fasted overnight prior to the morning doses and for at least 2 hours prior to the evening doses. Food was withheld for at least 2 hours postdose. A total of 49 subjects were enrolled in the study of which 39 received 4-[2-(5-amino-1 H-pyrazol-4-yl)-4-chlorophenoxy]-5-chloro-2-fluoro-N-(1,3-thiazol-4-yl)benzenesulfonamide TS and 10 received placebo. […]
Concentrations of uric acid in blood decreased following dosing with 4-[2-(5-amino-1 H-pyrazol-4-yl)-4-chlorophenoxy]-5-chloro-2-fluoro-N-(1,3-thiazol-4-yl)benzenesulfonamide. All subjects had blood uric acid values above the LLN on Day 1. […] Uric acid was also measured in urine collected over 24 hours prior to dosing on Day 1, and then on Days 6, 14 and 16. The percent excreted fraction of uric acid in urine was calculated and analyzed with a linear mixed effects model.

[3] = system: genotype lb HCV replicon (Huh-7); assay: microbe, parasite or virus in culture; conditions: Hepatitis C virus, Huh-7, 72 h
Experimental: The protein was expressed with an 18 amino acid C-terminal truncation to enhance the solubility. The E. coli competent cell line BL21(DE3) was used for expression of the protein. […] The cultures were cooled to 20 °C and induced with 1 mM IPTG. […] After addition of the lysis buffer, frozen cell pellets were resuspended using a tissue homogenizer. To reduce the viscosity of the sample, aliquots of the lysate were sonicated on ice using a microtip attached to a Branson sonicator. […] The protein was purified using two sequential chromatography steps: Heparin sepharose CL-6B and polyU sepharose 4B. […] Each column was eluted with a NaCl gradient which varied in length from 5-50 column volumes depending on the column type. […] The enzyme was aliquoted and stored at -80 °C. […] Unbound primer was removed after centrifugation. […] After incubating for at least 15 minutes, plates were read on an Amersham LEADseeker multimodality imaging system. IC50 values for compounds were determined using ten different [I]. […] Cell lines. […] These cells were maintained in Dulbecco's modified Eagle medium (DMEM) containing 10% FBS, 100 U/mL penicillin/streptomycin and 1.0 mg/mL G418. […]

## Nc1[nH]ncc1-c1cc(Cl)ccc1Oc1cc(F)c(S(=O)(=O)Nc2cscn2)cc1Cl [4-[2-(5-amino-1H-pyrazol-4-yl)-4-chlorophenoxy]-5-chloro-2-fluoro-N-(1,3-thiazol-4-yl)benzenesulfonamide]
[1]; 450 mg BID
  day on which median blood uric acid concentrations fell below LLN: Day 3
[1]; all cohorts (300 mg and 450 mg BID), Day 6
  median blood uric acid concentration relative to LLN: below the LLN
[1]; following dosing, given as TS dispersion 300 mg or 450 mg BID
  Concentrations of uric acid in blood: decreased
[1]; i.e. by Day 16
  time after cessation of dosing until blood uric acid returned to above the LLN for all subjects: ≤ 2 days
[2]
  excreted fraction of uric acid in urine: increases during dosing

## CN1CC2CCC(C1)N2C(=O)[C@]12C[C@H]1c1cc(F)ccc1-c1c(C3CCCCC3)c3ccc(C(=O)NS(=O)(=O)C4(C)CC4)cc3n1C2 [Compound 2, (1aR,12bS)-8-cyclohexyl-11-fluoro-N-((1-methylcyclopropyl)sulfonyl)-1a-((3-methyl-3,8-diazabicyclo[3.2.1]oct-8-yl)carbonyl)-1,1a,2,12b-tetrahydrocyclopropa[d]indolo[2,1-a][2]benzazepine-5-carboxamide]
[3]
  EC50: 7 nM

From patent EP2792360A1, “(1aR,12bS)-8-cyclohexyl-11-fluoro-N-((1-methylcyclopropyl)sulfonyl)-1a-((3-methyl-3,8-diazabicyclo[3.2.1]oct-8-yl)carbonyl)-1,1a,2,2b-tetrahydrocyclopropa[d]indolo[2,1-a][2]benzazepine-5-carboxamide for use in treating HCV” (IP Gesellschaft für Management mbH, priority 2013, dated 2014)
